pEC50: −log10 of the molar value.
The compounds below were run against T1, human mGluR2 receptor (Homo sapiens, UniProt Q14416) (assay: [35S]-GTPγS binding assay of mGluR2 receptor activation). Settings: not given.
T1 construct: expressed in transfected cells
Format: biochemical
Protocol: A [^35S]-GTPγS binding assay was used to functionally assay mGluR2 receptor activation. The allosteric activator activity of compounds at the human mGluR2 receptor were measured using a [^35S]-GTPγS binding assay with membranes prepared from CHO cells which stably express the human mGluR2. The assay is based upon the principle that agonists bind to G-protein coupled receptors to stimulate GDP-GTP exchange at the G-protein. Since [^35S]-GTPγS is a non-hydrolyzable GTP analog, it can be used to provide an index of GDP-GTP exchange and, thus, receptor activation. The GTPγS binding assay therefore provides a quantitative measure of receptor activation.
Membranes were prepared from CHO cells stably transfected with human mGluR2. Membranes (30 μg protein) were incubated with test compound (3 nM to 300 μM) for 15 minutes at room temperature prior to the addition of 1 μM glutamate, and incubated for 30 min at 30° C. in 500 μl assay buffer (20 mM HEPES, 100 mM NaCl, 10 mM MgCl2), containing 30 μM GDP and 0.1 nM [^35S]-GTPγS (1250 Ci/mmol). Reactions were carried out in triplicate in 2 ml polypropylene 96-well plates. Reactions were terminated by vacuum filtration using a Packard 96-well harvester and Unifilter-96, GF/B filter microplates. The filter plates were washed 4×1.5 ml with ice-cold wash buffer (10 mM sodium phosphate buffer, pH 7.4). The filter plates were dried and 35 μl of scintillation fluid (Microscint 20) was added to each well. The amount of radioactivity bound was determined by counting plates on the Packard TopCount. Data was analyzed using GraphPad Prism, and EC50 and Emax values (relative to the maximum glutamate effect) were calculated using non-linear regression.

T1 sequence (Q14416 19-872): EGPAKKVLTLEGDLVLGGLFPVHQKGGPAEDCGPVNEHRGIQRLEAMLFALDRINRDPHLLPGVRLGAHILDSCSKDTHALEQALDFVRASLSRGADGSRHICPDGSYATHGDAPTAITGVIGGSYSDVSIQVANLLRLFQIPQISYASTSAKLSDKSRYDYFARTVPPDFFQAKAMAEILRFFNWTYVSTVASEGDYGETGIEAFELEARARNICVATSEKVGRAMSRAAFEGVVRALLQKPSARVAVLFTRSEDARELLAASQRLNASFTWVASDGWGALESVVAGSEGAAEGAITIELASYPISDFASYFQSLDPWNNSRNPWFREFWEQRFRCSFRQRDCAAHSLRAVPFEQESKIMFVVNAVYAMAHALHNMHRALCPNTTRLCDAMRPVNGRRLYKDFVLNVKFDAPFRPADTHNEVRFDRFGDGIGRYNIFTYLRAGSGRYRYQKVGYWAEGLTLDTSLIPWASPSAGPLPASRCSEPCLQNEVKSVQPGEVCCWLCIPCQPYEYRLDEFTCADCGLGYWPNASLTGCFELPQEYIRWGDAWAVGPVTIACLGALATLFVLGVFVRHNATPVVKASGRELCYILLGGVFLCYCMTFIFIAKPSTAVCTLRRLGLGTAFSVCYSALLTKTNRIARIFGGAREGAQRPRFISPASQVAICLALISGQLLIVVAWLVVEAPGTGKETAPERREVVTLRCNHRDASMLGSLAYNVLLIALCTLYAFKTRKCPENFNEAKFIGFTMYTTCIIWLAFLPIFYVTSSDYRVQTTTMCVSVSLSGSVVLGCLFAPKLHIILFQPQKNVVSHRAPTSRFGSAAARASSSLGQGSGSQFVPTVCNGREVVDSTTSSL

Q: `Cc1cc(CN2CCN(c3ccccn3)CC2)cc2c1C(=O)N(Cc1ccc(OC(F)(F)F)cc1)C2` [Example 167, 7-Methyl-5-(4-pyridin-2-yl-piperazin-1-ylmethyl)-2-(4-trifluorometh-oxy-benzyl)-2,3-dihydro-isoindol-1-one] was tested. Which pEC50 did it give?
A: 6.85

Q: How did the pEC50 turn out when `Cc1cc(-c2nc(CN3CCOCC3)no2)cc2c1C(=O)N(Cc1ccc(OC(F)(F)F)cc1)C2` [Example 178, 7-Methyl-5-(3-morpholin-4-ylmethyl-[1,2,4]oxadiazol-5-yl)-2-(4-trifluorometh-oxy-benzyl)-2,3-dihydro-isoindol-1-one] was run?
A: 6.96

Q: With `CNCc1nnc(-c2cc(C)c3c(c2)CN(Cc2ccc(OC(F)(F)F)cc2)C3=O)o1` [Example 181, 7-Methyl-5-(5-methylaminomethyl-[1,3,4]oxadiazol-2-yl)-2-(4-trifluorometh-oxy-benzyl)-2,3-dihydro-isoindol-1-one] as the compound, how does the pEC50 read?
A: 5.67

Q: `Cc1cc(-c2nnc(CN(C)C)o2)cc2c1C(=O)N(Cc1ccc(OC(F)(F)F)cc1)C2` [Example 175, 5-(5-Dimethylamino-methyl-[1,3,4]oxadiazol-2-yl)-7-methyl-2-(4-trifluorometh-oxy-benzyl)-2,3-dihydro-isoindol-1-one] was tested. Which pEC50 did it give?
A: 5.19

Q: With `CNCc1noc(-c2cc(C)c3c(c2)CN(Cc2ccc(OC(F)(F)F)cc2)C3=O)n1` [Example 179, 7-Methyl-5-(3-methylamino-methyl-[1,2,4]oxadiazol-5-yl)-2-(4-trifluorometh-oxy-benzyl)-2,3-dihydro-isoindol-1-one] as the compound, how does the pEC50 read?
A: 6.33

Same assay, conditions: membranes from CHO cells stably expressing human mGluR2; 1 μM glutamate

Q: With `Cc1cc(N2CCC(N(C)C)C2)cc2c1C(=O)N(Cc1ccc(Cl)cc1)C2` (stereo not shown) [Example 119, 2-(4-chlorobenzyl)-5-(3-dimethylamino-pyrollidin-1-yl)-7-methyl-2,3-dihydroisoindol-1-one] as the compound, how does the pEC50 read?
A: 6.38

Q: `Cc1cc(CNCc2ccccc2)cc2c1C(=O)N(Cc1ccc(OC(F)(F)F)cc1)C2` [Example 45, 5-(Benzylamino-methyl)-7-methyl-2-(4-trifluoromethoxy-benzyl)-2,3-dihydro-isoindol-1-one] was tested. Which pEC50 did it give?
A: 6.41

Q: `Cc1cc(N2CCCN(C)CC2)cc2c1C(=O)N(Cc1ccc(OC(F)(F)F)cc1)C2` [Example 113, 7-Methyl-5-(4-methyl-[1,4]-diazepan-1-yl)-2-(4-trifluoromethoxy-benzyl)-2,3-dihydroisoindol-1-one] was tested. Which pEC50 did it give?
A: 5.92

Q: `O=C1c2c(Cl)cc(N3CCOCC3)cc2CN1Cc1ccc(OC(F)(F)F)cc1` [Example 155, 7-Chloro-5-morpholin-4-yl-2-(4-trifluoromethoxy-benzyl)-2,3-dihydro-isoindol-1-one] was tested. Which pEC50 did it give?
A: 6.28

Q: How did the pEC50 turn out when `Cc1cc(N2CCNCC2)cc2c1C(=O)N(Cc1ccc(OC(F)(F)F)cc1)C2` [Example 123, 7-Methyl-5-piperazin-1-yl-2-(4-trifluoromethoxy-benzyl)-2,3-dihydroisoindol-1-one] was run?
A: 5.41

Q: With `Cc1cc(N2CCN(CCc3ccncc3)CC2)cc2c1C(=O)N(Cc1ccc(OC(F)(F)F)cc1)C2` [Example 137] as the compound, how does the pEC50 read?
A: 7.00

Q: `O=C1c2c(Cl)cc(-c3ccncc3)cc2CN1Cc1ccc(Cl)cc1` [Example 106, 7-Chloro-2-(4-chloro-benzyl)-5-pyridin-4-yl-2,3-dihydro-isoindol-1-one] was tested. Which pEC50 did it give?
A: 6.89

Q: With `O=Cc1cnccc1-c1cc(Cl)c2c(c1)CN(Cc1ccc(Cl)cc1)C2=O` [Example 108, 4-[7-Chloro-2-(4-chloro-benzyl)-1-oxo-2,3-dihydro-1H-isoindol-5-yl]-pyridine-3-carbaldehyde] as the compound, how does the pEC50 read?
A: 6.34

Q: With `Cc1cc(Br)cc2c1C(=O)N(Cc1ccc(OC(F)(F)F)cc1)C2` [Example 30, 5-Bromo-7-methyl-2-(4-trifluoromethoxy-benzyl)-2,3-dihydro-isoindol-1-one] as the compound, how does the pEC50 read?
A: 6.43

Q: With `Cc1cc(N2CCN(CC3CCCN(C)C3)CC2)cc2c1C(=O)N(Cc1ccc(OC(F)(F)F)cc1)C2` (stereo not shown) [Example 139, 7-Methyl-5-[4-(1-methyl-piperidin-3-ylmethyl)-piperazin-1-yl]-2-(4-tri-fluoromethoxy-benzyl)-2,3-dihydro-isoindol-1-one] as the compound, how does the pEC50 read?
A: 5.98

Q: `Cc1cc(CN2CCN(c3ccccn3)CC2)cc2c1C(=O)N(Cc1ccc(OC(F)(F)F)cc1)C2` [Example 43, 7-Methyl-5-(4-pyridin-2-yl-piperazin-1-ylmethyl)-2-(4-trifluoromethoxy-benzyl)-2,3-dihydro-isoindol-1-one] was tested. Which pEC50 did it give?
A: 7.30

Q: How did the pEC50 turn out when `COc1cc(Br)cc2c1C(=O)N(Cc1ccc(Cl)cc1)C2` [Example 32, 5-Bromo-2-(4-chloro-benzyl)-7-methoxy-2,3-dihydro-isoindol-1-one] was run?
A: 5.55

Q: How did the pEC50 turn out when `Cc1cc(CN(C)Cc2ccccc2)cc2c1C(=O)N(Cc1ccc(OC(F)(F)F)cc1)C2` [compound 35, 5-[(Benzylmethylamino)-methyl]-7-methyl-2-(4-trifluoromethoxy-benzyl)-2,3-dihydro-isoindol-1-one] was run?
A: 7.15

Q: `CCN1CCN(c2cc3c(c(OC)c2)C(=O)N(Cc2ccc(OC(F)(F)F)cc2)C3)CC1` [Example 127, 5-(4-Ethylpiperazin-1-yl)-7-methoxy-2-(4-trifluoromethoxy-benzyl)-2,3-dihydroisoindol-1-one] was tested. Which pEC50 did it give?
A: 5.33

Q: `COc1cc(N2CCC(N(C)C)C2)cc2c1C(=O)N(Cc1ccc(OC(F)(F)F)cc1)C2` (stereo not shown) [Example 126, 5-(3- Dimethylaminopyrrolidin-1-yl)-7-methoxy-2-(4-trifluoromethoxy-benzyl)-2,3-dihydroisoindol-1-one] was tested. Which pEC50 did it give?
A: 5.60

Q: With `Cc1cc(CN2CCC(CCCc3ccccc3)CC2)cc2c1C(=O)N(Cc1ccc(OC(F)(F)F)cc1)C2` [Example 54, 7-Methyl-5-[4-(3-phenylpropyl)-piperidin-1-ylmethyl]-2-(4-trifluoromethoxy-benzyl)-2,3-dihydroisoindol-1-one] as the compound, how does the pEC50 read?
A: 7.00

Q: `Cc1cc(-c2ccncc2)cc2c1C(=O)N(Cc1ccc(Cl)cc1)C2` [Example 97, 2-(4-chlorobenzyl)-7-methyl-5-pyridin-4-yl-2,3-dihydroisoindol-1-one] was tested. Which pEC50 did it give?
A: 6.52

Q: `Cc1cc(-c2ccncc2)cc2c1C(=O)N(Cc1ccc(Oc3ccccc3)cc1)C2` [Example 103, 7-Methyl-2-(4-phenoxy-benzyl)-5-pyridin-4-yl-2,3-dihydro-isoindol-1-one] was tested. Which pEC50 did it give?
A: 7.40

Q: With `COc1cc(N2CCN3CCCC3C2)cc2c1C(=O)N(Cc1ccc(OC(F)(F)F)cc1)C2` (stereo not shown) [Example 124, 5- (Hexahydropyrrolo [1,2-a]pyrazin-2-yl)-7-methoxy-2-(4-trifluoromethoxy-benzyl)-2,3-dihydroisoindol-1-one] as the compound, how does the pEC50 read?
A: 5.72

Q: With `COCCN1CCN(c2cc(Cl)c3c(c2)CN(Cc2ccc(OC(F)(F)F)cc2)C3=O)CC1` [Example 154, 7-Chloro-5-[4-(2-methoxy-ethyl)-piperazin-1-yl]-2-(4-trifluoromethoxy-benzyl)-2,3-dihydro-isoindol-1-one] as the compound, how does the pEC50 read?
A: 6.68

Q: How did the pEC50 turn out when `CN(C)[C@H]1CCN(c2cc(Cl)c3c(c2)CN(Cc2ccc(OC(F)(F)F)cc2)C3=O)C1` (stereo in doubt) [Example 144, 7-Chloro-5-(3-dimethylamino-pyrrolidin-1-yl)-2-(4-trifluoromethoxy-benzyl)-2,3-dihydro-isoindol-1-one] was run?
A: 6.51

Q: With `Cc1cc(N2CCN(C)CC2)cc2c1C(=O)N(Cc1ccc(Oc3ccccc3)cc1)C2` [Example 114, 7-Methyl-5-(4-methylpiperazin-1-yl)-2-(4-phenoxybenzyl)-2,3-dihydroisoindol-1-one] as the compound, how does the pEC50 read?
A: 6.55

Q: `Cc1cc(N2CCN(CCN(C)C)CC2)cc2c1C(=O)N(Cc1ccc(OC(F)(F)F)cc1)C2` [Example 140, 5-[4-(2-Dimethylamino-ethyl)-piperazin-1-yl]-7-methyl-2-(4-trifluoro-methoxy-benzyl)-2,3-dihydro-isoindol-1-one] was tested. Which pEC50 did it give?
A: 5.92

Q: How did the pEC50 turn out when `COc1cc(N2CCCN(C)CC2)cc2c1C(=O)N(Cc1ccc(OC(F)(F)F)cc1)C2` [Example 128, 7-Methoxy-5-(4-methyl-[1,4]-diazepan-1-yl)-2-(4-triflouoromethoxy-benzyl)-2,3-dihydro-isoindol-1-one] was run?
A: 5.30

Q: With `O=C1c2c(Cl)cc(Br)cc2CN1Cc1ccc(Cl)cc1` [Example 34, 5-Bromo-7-chloro-2-(4-chloro-benzyl)-2,3-dihydro-isoindol-1-one] as the compound, how does the pEC50 read?
A: 6.33

Q: How did the pEC50 turn out when `Cc1cc(C(=O)N2CCN(CCc3ccncc3)CC2)cc2c1C(=O)N(Cc1ccc(OC(F)(F)F)cc1)C2` [Example 163, 7-Methyl-5-[4-(2-pyridin-4-yl-ethyl)piperazine-1-carbonyl]-2-(4-trifluoromethoxy-benzyl)-2,3-dihydro-isoindol-1-one] was run?
A: 5.92

Q: How did the pEC50 turn out when `COc1cc(-c2ccncc2)cc2c1C(=O)N(Cc1ccc(OC(F)(F)F)cc1)C2` [Example 99, 7-Methoxy-5-pyridin-4-yl-2-(4-trifluoromethoxy-benzyl)-2,3-dihydroisoindol-1-one] was run?
A: 6.40

Q: With `Cc1cc(N2CCN3CCCCC3C2)cc2c1C(=O)N(Cc1ccc(Cl)cc1)C2` (stereo not shown) [Example 121] as the compound, how does the pEC50 read?
A: 5.91

Q: With `Cc1cc(N2CCN(Cc3cccnc3)CC2)cc2c1C(=O)N(Cc1ccc(OC(F)(F)F)cc1)C2` [Example 138, 7-Methyl-5-(4-pyridin-3-ylmethyl-piperazin-1-yl)-2-(4-trifluoromethoxy-benzyl)-2,3-dihydro-isoindol-1-one] as the compound, how does the pEC50 read?
A: 6.44

— patent publication US7968570B2, “Isoindolone compounds and their use as metabotropic glutamate receptor potentiators” (AstraZeneca AB, priority 2004, dated 2011)
